# Assay results from publication PMC9423655, “Huntington’s disease phenotypes are improved via mTORC1 modulation by small molecule therapy” (PLoS ONE, 2022).
# Legend:
# [1] = tested on: medial prefrontal cortex; design: method as in PMID 30990795; settings: cited from earlier work
# [2] = tested on: mTORC1; design: method as in PMID 30858438, PMID 30990795; settings: cited from earlier work
# [3] = tested on: Sestrin2; design: method as in PMID 30858438, PMID 30990795; settings: cited from earlier work
# [4] = target: T1, Sestrin2/GATOR2 interaction (Homo sapiens, UniProt P58004); test: Intact cells-based Sestrin2/GATOR2 protein-protein interaction assay, Flag-WDR24 293T cells; format: cell-based; settings: leucine-starved flag-WDR24 HEK-293T cells, 10 minutes, S1C Fig
# T1 construct: endogenous in cells; host or cells: Flag-WDR24 293T (HEK293T) cells
# T1 sequence (P58004 1-480): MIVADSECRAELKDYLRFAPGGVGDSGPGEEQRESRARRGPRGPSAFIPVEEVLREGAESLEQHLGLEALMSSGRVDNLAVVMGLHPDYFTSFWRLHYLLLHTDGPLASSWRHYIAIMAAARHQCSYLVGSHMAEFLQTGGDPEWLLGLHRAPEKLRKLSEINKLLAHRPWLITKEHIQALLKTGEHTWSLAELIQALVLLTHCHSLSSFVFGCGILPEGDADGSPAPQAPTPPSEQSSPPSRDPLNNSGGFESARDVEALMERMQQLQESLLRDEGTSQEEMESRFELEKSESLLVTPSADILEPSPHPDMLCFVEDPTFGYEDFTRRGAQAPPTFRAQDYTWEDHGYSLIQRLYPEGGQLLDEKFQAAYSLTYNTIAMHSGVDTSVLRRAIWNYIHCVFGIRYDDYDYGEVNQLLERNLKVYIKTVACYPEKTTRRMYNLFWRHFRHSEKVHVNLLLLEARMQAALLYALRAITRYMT
# Method: Flag-WDR24 293T cells were washed and placed in leucine-free DMEM supplemented 10% dFBS for 50 minutes followed by treatment with NV-5297, leucine or vehicle for 10 minutes. Cells were rinsed once with ice-cold PBS and immediately lysed with Triton lysis buffer (1% Triton, 10 mM β-glycerol phosphate, 10 mM pyrophosphate, 40 mM Hepes pH 7.4, 2.5 mM MgCl2 and 1 tablet of EDTA-free protease inhibitor). The cell lysates were cleared by centrifugation at 13,200 rpm at 4°C in a microcentrifuge for 10 minutes. Prior to immunoprecipitations, an aliquot of lysate was taken for SDS-PAGE and immunoblotting for pS6K1, S6K1 and tubulin. For anti-FLAG immunoprecipitations, the FLAG-M2 affinity gel was washed 3 times with Triton lysis buffer, and 30 μl of a 50/50 slurry of the FLAG-M2 affinity gel was then added to approximately 2 mg of clarified cell lysates and incubated with rotation for 3 hours at 4°C. Following immunoprecipitation, the beads were washed one time with Triton wash buffer containing 500 mM NaCl. Immunoprecipitated proteins were denatured, resolved by SDS-PAGE, and analyzed by immunoblotting.
# Next, Sestrin2/GATOR2 protein-protein interactions in response to NV-5297 were measured using cell-free assays and in vitro. For this, HEK293T cells stably expressing flag-WDR24, a component of GATOR2 [44], were used. The cell-free assays utilized Sestrin2/GATOR2 complexes immunoprecipitated from amino acid-starved cells with an anti-flag antibody.
# [5] = tested on: SesnTKO HEK293T cells; test: mTORC1 activation (p70S6K1) in HEK293T cells null for all three Sestrin isoforms; format: cell-based; settings: leucine-starved 50 minutes, treatment 10 minutes
# Method: (§1) All cell lines were cultured in DMEM (Corning, #MT10013CV) supplemented with 10% heat-inactivated FBS (Gibco, #16140–071). All cell lines were maintained at 37°C and 5% CO2. For amino acid starvation, cells were rinsed once with and incubated Amino acid-free RPMI (US Biologicals, #R8999-04A) supplemented with 10% dialyzed FBS (Gibco, #26400044) for 50 min followed by treatment with NV-5297, leucine, or vehicle for 10 minutes. For leucine starvation, cells were rinsed once with and incubated in leucine-free DMEM (AthenaES, #0420) supplemented with 10% dialyzed FBS (Gibco, #26400044) for 50 minuted followed by treatment with NV-5297, leucine, or vehicle for 10 minutes.
# (§2) To ascertain if Sestrins and the GATOR pathway are required for NV-5297 activity, we tested mTORC1 activation in cells null for either all three Sestrin isoforms [SesnTKO] or for the GATOR1 component Npr13 [Npr13KO] [44]. […]
# (§3) (A) Activation of the mTORC1 pathway by NV-5297. […] Representative immunoblots of ^T389pS6K1 and quantification of the normalized level of ^T389pS6K1 from 8 independent experiments (F) show TORC1 activity in unedited HEK-293T cells, HEK-293T cells deficient for Sestrin 1 (Sesn1), 2 (Sesn2) and 3 (Sesn3) (D) or HEK-293T cells deficient for the GATOR1 component Nprl3 (E) after 50 minutes leucine starvation followed by the addition of vehicle, NV-5297 or leucine for 10 minutes. […]
# [6] = tested on: Npr13KO HEK293T cells; test: mTORC1 activation (p70S6K1) in HEK293T cells null for GATOR1 component Nprl3; format: cell-based; settings: leucine-starved 50 minutes, treatment 10 minutes
# Method: as §1, §2, §3
# [7] = tested on: mTORC1; test: mTORC1 activation (pS6K1 immunoblot) in leucine-starved HEK293T cells; format: cell-based; settings: HEK293T cells starved of leucine 50 minutes, treatment 10 minutes
# Method: as §1
# as §3, with “NV-5297. […] (B) NV-5297 disrupts Sestrin2/GATOR2 in the in vitro Sesn2/WDR24 protein-protein interaction assay in a dose-dependent manner.” for “NV-5297.”
Compound,synaptic formation in the medial prefrontal cortex [1],mTORC1 activation in peripheral tissues and CNS [2],Sestrin2 binding [3],p70S6K1 (T389 pS6K1) level [4],p70S6K1 levels [5],p70S6K1 levels [6],mTORC1 activation measured by phosphorylated S6K1 (pS6K1 / p70S6K1) [7]
CC(C)(C[C@H](N)C(=O)O)C(F)F [NV-5138],improved synaptic formation,transiently activates mTORC1,binds Sestrin2,,,,
"CC(C)C[C@H](N)C(=O)O [leucine, reference compound]",,,,Dose-dependent activation of mTORC1,remained unchanged,remained unchanged,activates mTORC1 in leucine-starved HEK293T cells in a dose-dependent manner
